The record followed here is PMC8126724, “Infant-Associated Bifidobacterial β-Galactosidases and Their Ability to Synthesize Galacto-Oligosaccharides” (Frontiers in Microbiology, 2021).

One assay concerns T1, BgaE.
T1 construct: gene B8809_0611; tetramer
Description: o-nitrophenol release, A420. In kind it is biochemical, Bifidobacterium longum subsp. longum. The conditions noted are these: 0.1 M sodium acetate pH 6.5, 40 °C; unit mM, not in table. The text has this:
o-nitrophenol release, A420 on BgaE

The subject of another assay is T2, BgaD.
T2 construct: gene B8809_0415; His6-tagged, expressed in Lactococcus lactis (pNZ8150), Ni-purified; trimer
As to the kind of experiment: o-nitrophenol release, A420. In kind it is biochemical, Bifidobacterium longum subsp. longum. The conditions noted are these: 0.1 M sodium acetate pH 6.5, 40 °C; unit mM, not in table. An excerpt: o-nitrophenol release, A420 on BgaD

Structures are written as SMILES.

Take `O=[N+]([O-])c1ccccc1O[C@@H]1O[C@H](CO)[C@H](O)[C@H](O)[C@H]1O` [ONPG]: the Km was 11.1 mM with BgaE and 17 mM in the assay on BgaD.

Usually Km stands for the substrate concentration at which the rate is half of its maximum.
